Consider 24 compounds from patent US10233179B2, “Thiazoles and uses thereof” (AbbVie Inc., priority 2013, dated 2019).

The subject of one data set is HEp-2 cells. In words: Cytotoxicity assay (MTT) in parallel with the antiviral assay. Format: cell-based. On the procedure:
HEp-2 cells and RSV (Group A, Long Strain) were obtained from the American Type Culture Collection (Manassas, Va.). Cytotoxicity of the compounds was determined in experiments done in parallel with the antiviral assays. To do this, 100 μL of assay medium was added to the wells of HEp-2 cells pretreated with 100 μL serially diluted compounds as described above. After 4 days of incubation, the viability of the cells was determined by the MTT assay in the same way as detailed in the “Antiviral Assay” method. Results were expressed as 50% toxicity dose (TD50) values. Compounds were tested to determine both their antiviral and toxicity to determine their therapeutic window. Determination of the EC50 and TD50 of these active compounds were repeated one additional time to confirm the window.

Data set [1] has as its system RSV (Group A, Long Strain). In words: Antiviral cytopathic effect (CPE) protection assay, MTT readout. The following applies: human respiratory syncytial virus, 96 h; HEp-2 cells, 0.2 MOI RSV, 4 days incubation, protection from CPE by MTT. Format: cell-based. On the procedure: HEp-2 cells and RSV (Group A, Long Strain) were obtained from the American Type Culture Collection (Manassas, Va.).
A cytopathic effect (CPE) protection assay was performed to determine the ability of a compound to protect the cells from viral infection and thus the CPE induced by viral infection. 96-Well plates were first seeded with 3×10^3 HEp-2 cells per well in Dulbecco's modified Eagle's medium (DMEM) containing 10% fetal bovine serum (FBS). One day after the cells were seeded, they were preincubated with serial dilutions of compounds prepared in 100 μL assay medium (DMEM mixed with F12 medium at a 1:1 ratio, supplemented with 2% FBS and 1 mM sodium pyruvate) for 1 hour at 37° C. 100 μL of assay medium containing 0.2 multiplicity of infection (MOI) of RSV was then added to each well of cells. In addition to wells containing infected cells incubated with compounds, each plate also contained replicates of two kinds of controls: (1) Virus control contained cells infected with 0.2 MOI of RSV in assay medium, (2) Uninfected cell control contained cells incubated with assay medium only. After 4 days of incubation at 37° C., the viability of cells was assessed using MTT (Thiazolyl blue tetrazolium bromide, Sigma). A stock solution of MTT, at a concentration of 4 mg/mL in phosphate-buffered saline, was added to all wells at 25 μL per well. Plates were further incubated for 4 hours, and each well was then treated with 50 μL of a solution containing 20% sodium dodecyl sulfate (SDS) and 0.02 N HCl. After an overnight incubation, the plates were measured on a BioTek® microtiter plate reader at wavelengths of 570 nm and 650 nm. The MTT detection is based on the fact that viable (uninfected) cells can reduce the tetrazolium salts into colored formazan products, which can then be quantitated by spectrometry. Based on the spectrometric absorbance of each sample, the percent of protection from CPE, which is an indicator of protection from viral infection, can be calculated for each compound and the 50% effective concentrations (EC50) can be calculated using a nonlinear regression curve fitting equation provided by the GraphPad Prism® 4 software.
Compounds were tested to determine both their antiviral and toxicity to determine their therapeutic window. Determination of the EC50 and TD50 of these active compounds were repeated one additional time to confirm the window.
Background: Damage to the host cells serves as the signal in cytopathic effect assays.

[2] abbreviates: uninfected HEp-2 cells, 4 days incubation, MTT viability.

For orientation: EC50 means the concentration that produces a half-maximal response. The low end stands for greater potency, the high end for weaker potency.

For `FC(F)(F)c1cccc(CN(Cc2cccn2-c2nccs2)Cc2cccn2-c2nccs2)c1` [Example 44, 1-[1-(1,3-thiazol-2-yl)-1H-pyrrol-2-yl]-N-{[1-(1,3-thiazol-2-yl)-1H-pyrrol-2-yl]methyl}-N-[3-(trifluoromethyl)benzyl]methanamine], in the data set on HEp-2 cells (setting [2]), the “MTT TD50” value amounted to 38 µM. Further, the response in data set [1] was half-maximal at 120 nM (EC50).

As to `N#Cc1ccc(CN(Cc2cccn2-c2nccs2)Cc2cccn2-c2nccs2)cc1` [Example 45, 4-[(bis{[1-(1,3-thiazol-2-yl)-1H-pyrrol-2-yl]methyl}amino)methyl]benzonitrile], in the data set with HEp-2 cells (setting [2]), the “MTT TD50” value was over 32 µM. This compound also showed an EC50 in data set [1] of 960 nM.

For `CC(c1ccc(Cl)c(Cl)c1)N(Cc1cccn1-c1nccs1)Cc1cccn1-c1nccs1` (stereo not drawn) [Example 46, 1-(3,4-dichlorophenyl)-N,N-bis{[1-(1,3-thiazol-2-yl)-1H-pyrrol-2-yl]methyl}ethanamine], the “MTT TD50” value in the data set with HEp-2 cells (setting [2]) was over 32 µM. In data set [1], this compound came in with an EC50 of 550 nM.

Take `Clc1ccccc1CN(Cc1cccn1-c1nccs1)Cc1cccn1-c1nccs1` [Example 47, 1-(2-chlorophenyl)-N,N-bis{[1-(1,3-thiazol-2-yl)-1H-pyrrol-2-yl]methyl}methanamine]: the “MTT TD50” value in the data set on HEp-2 cells (setting [2]) stood at 7.0 µM. The compound also registered an EC50 in data set [1] of 15 nM.

As for `C[C@H](c1ccccc1Cl)N(Cc1cccn1-c1nccs1)Cc1cccn1-c1nccs1` [Example 48, (1R)-1-(2-chlorophenyl)-N,N-bis{[1-(1,3-thiazol-2-yl)-1H-pyrrol-2-yl]methyl}ethanamine], the “MTT TD50” value in the data set on HEp-2 cells (setting [2]) came to 6.7 µM. In addition, the EC50 in data set [1] is 110 nM.

As to `C[C@@H](c1ccccc1Cl)N(Cc1cccn1-c1nccs1)Cc1cccn1-c1nccs1` [Example 49, (1S)-1-(2-chlorophenyl)-N,N-bis{[1-(1,3-thiazol-2-yl)-1H-pyrrol-2-yl]methyl}ethanamine], the “MTT TD50” value with HEp-2 cells (setting [2]) is 4.3 µM. In data set [1], a half-maximal effect (EC50) was put at 45 nM.

Regarding `c1cnnc(N(Cc2cccn2-c2nccs2)Cc2cccn2-c2nccs2)c1` [Example 50, N,N-bis{[1-(1,3-thiazol-2-yl)-1H-pyrrol-2-yl]methyl}pyridazin-3-amine], the “MTT TD50” value with HEp-2 cells (setting [2]) is over 100 µM. This compound also had an EC50 in data set [1] of over 100000 nM.

Regarding `c1ccc(C2(CCN(Cc3cccn3-c3nccs3)Cc3cccn3-c3nccs3)CC2)nc1` [Example 51, 2-[1-(pyridin-2-yl)cyclopropyl]-N,N-bis{[1-(1,3-thiazol-2-yl)-1H-pyrrol-2-yl]methyl}ethanamine], the “MTT TD50” value with HEp-2 cells (human, 4 days) was determined as 6.2 µM. Besides, the EC50 in data set [1] came out at 45 nM.

Turning to `c1cc(CN(Cc2cccn2-c2nccs2)C2CCCCC2)n(-c2nccs2)c1` [Example 52, N,N-bis{[1-(1,3-thiazol-2-yl)-1H-pyrrol-2-yl]methyl}cyclohexanamine], in the data set with HEp-2 cells (setting [2]), the “MTT TD50” value turned out to be 7.2 µM. The compound further returned an EC50 in data set [1] of 100 nM.

For the compound `c1ccc(N(Cc2cccn2-c2nccs2)Cc2cccn2-c2nccs2)cc1` [Example 53, N,N-bis{[1-(1,3-thiazol-2-yl)-1H-pyrrol-2-yl]methyl}aniline], the “MTT TD50” value in the data set with HEp-2 cells (setting [2]) is over 32 µM. Besides, the EC50 in data set [1] worked out at 2700 nM.

Take `FC(F)(F)c1ccc(CN(Cc2cccn2-c2nncs2)Cc2cccn2-c2nncs2)cc1` [Example 54, 1-[1-(1,3,4-thiadiazol-2-yl)-1H-pyrrol-2-yl]-N-{[1-(1,3,4-thiadiazol-2-yl)-1H-pyrrol-2-yl]methyl}-N-[4-(trifluoromethyl)benzyl]methanamine]: in the data set on HEp-2 cells (setting [2]), the “MTT TD50” value is 21 µM. Besides, the EC50 in data set [1] was over 21000 nM.

`Clc1cccc(Cl)c1CN(Cc1cccn1-c1nncs1)Cc1cccn1-c1nncs1` [Example 55, 1-(2,6-dichlorophenyl)-N,N-bis{[1-(1,3,4-thiadiazol-2-yl)-1H-pyrrol-2-yl]methyl}methanamine]: the “MTT TD50” value in the data set with HEp-2 cells (setting [2]) is over 32 µM. The compound also had an EC50 in data set [1] of over 32000 nM.

Take `N#Cc1ccc(CN(Cc2cccn2-c2nncs2)Cc2cccn2-c2nncs2)cc1` [Example 56, 4-[(bis{[1-(1,3,4-thiadiazol-2-yl)-1H-pyrrol-2-yl]methyl}amino)methyl]benzonitrile]: in the data set on HEp-2 cells (setting [2]), the “MTT TD50” value was over 100 µM. The same compound registered an EC50 in data set [1] of 46000 nM.

On to `FC1(F)CCC(CN(Cc2cccn2-c2nccs2)Cc2cccn2-c2nccs2)CC1` [Example 57, 1-(4,4-difluorocyclohexyl)-N,N-bis{[1-(1,3-thiazol-2-yl)-1H-pyrrol-2-yl]methyl}methanamine], for which the “MTT TD50” value with HEp-2 cells (setting [2]) stood at 20 µM. Besides, the EC50 in data set [1] was 310 nM.

Take `FC(F)(F)Cn1cc(CN(Cc2cccn2-c2nccs2)Cc2cccn2-c2nccs2)cn1` [Example 58, 1-[1-(1,3-thiazol-2-yl)-1H-pyrrol-2-yl]-N-{[1-(1,3-thiazol-2-yl)-1H-pyrrol-2-yl]methyl}-N-{[1-(2,2,2-trifluoroethyl)-1H-pyrazol-4-yl]methyl}methanamine]: the “MTT TD50” value with HEp-2 cells (setting [2]) came out at 49 µM. This compound also yielded an EC50 in data set [1] of 520 nM.

Consider `FC(F)n1ccnc1CN(Cc1cccn1-c1nccs1)Cc1cccn1-c1nccs1` [Example 59, 1-[1-(difluoromethyl)-1H-imidazol-2-yl]-N,N-bis{[1-(1,3-thiazol-2-yl)-1H-pyrrol-2-yl]methyl}methanamine], for which the “MTT TD50” value in the data set with HEp-2 cells (setting [2]) amounted to 35 µM. Also, the EC50 in data set [1] turned out to be 4100 nM.

As for `c1cncc(C2(CCN(Cc3cccn3-c3nccs3)Cc3cccn3-c3nccs3)CC2)c1` [Example 60, 2-[1-(pyridin-3-yl)cyclopropyl]-N,N-bis{[1-(1,3-thiazol-2-yl)-1H-pyrrol-2-yl]methyl}ethanamine], the “MTT TD50” value in the data set with HEp-2 cells (setting [2]) was over 100 µM. This compound also came in with an EC50 in data set [1] of 850 nM.

For `c1cc(CN(Cc2cccn2-c2nncs2)C[C@H]2CCOC2)n(-c2nncs2)c1` [Example 61, 1-[(3R)-tetrahydrofuran-3-yl]-N,N-bis{[1-(1,3,4-thiadiazol-2-yl)-1H-pyrrol-2-yl]methyl}methanamine], in the data set with HEp-2 cells (setting [2]), the “MTT TD50” value was over 100 µM. In data set [1], this compound came in with an EC50 of over 100000 nM.

`C[C@H](c1ccc(F)cc1)N(Cc1cccn1-c1nccs1)Cc1cccn1-c1nccs1` [Example 62, (1R)-1-(4-fluorophenyl)-N,N-bis{[1-(1,3-thiazol-2-yl)-1H-pyrrol-2-yl]methyl}ethanamine]: the “MTT TD50” value in the data set on HEp-2 cells (setting [2]) was 3.0 µM. For the same compound, the EC50 in data set [1] was over 3000 nM.

For `c1coc(CN(Cc2cccn2-c2nccs2)Cc2cccn2-c2nccs2)c1` [Example 63, 1-(furan-2-yl)-N,N-bis{[1-(1,3-thiazol-2-yl)-1H-pyrrol-2-yl]methyl}methanamine], in the data set with HEp-2 cells (setting [2]), the “MTT TD50” value was found to be 20 µM. For the same compound, the EC50 in data set [1] amounted to 260 nM.

For the compound `CC(Cc1cccs1)N(Cc1cccn1-c1nccs1)Cc1cccn1-c1nccs1` (stereo not drawn) [Example 64, N,N-bis{[1-(1,3-thiazol-2-yl)-1H-pyrrol-2-yl]methyl}-1-(thiophen-2-yl)propan-2-amine], the “MTT TD50” value in the data set on HEp-2 cells (human, 4 days) was found to be 5.6 µM. Further, in data set [1], the EC50 amounted to 330 nM.

Turning to `c1cncc(C2(CN(Cc3cccn3-c3nccs3)Cc3cccn3-c3nccs3)CC2)c1` [Example 65, 1-[1-(pyridin-3-yl)cyclopropyl]-N,N-bis{[1-(1,3-thiazol-2-yl)-1H-pyrrol-2-yl]methyl}methanamine], the “MTT TD50” value in the data set on HEp-2 cells (setting [2]) is 25 µM. In data set [1], this compound gave an EC50 of 90 nM.

Turning to `c1cc(CN(CCC2(c3ccncc3)CC2)Cc2cccn2-c2nccs2)n(-c2nccs2)c1` [Example 66, 2-[1-(pyridin-4-yl)cyclopropyl]-N,N-bis{[1-(1,3-thiazol-2-yl)-1H-pyrrol-2-yl]methyl}ethanamine], the “MTT TD50” value in the data set on HEp-2 cells (setting [2]) turned out to be 14 µM. In data set [1], this compound returned an EC50 of 200 nM.

In the case of `N#Cc1cc(CN(Cc2cccn2-c2nccs2)Cc2cccn2-c2nccs2)cs1` [Example 67, 4-[(bis{[1-(1,3-thiazol-2-yl)-1H-pyrrol-2-yl]methyl}amino)methyl]thiophene-2-carbonitrile], in the data set on HEp-2 cells (setting [2]), the “MTT TD50” value was over 32 µM. This compound also returned an EC50 in data set [1] of 82 nM.
